# Measured values: paper PMC10060427, “A glucose tolerant β-glucosidase from a newly isolated Neofusicoccum parvum strain F7: production, purification, and characterization” (Scientific Reports, 2023)
# Assays:
# Type in all cases: biochemical, Neofusicoccum parvum
# Bgl3 = test system: T1, Bgl3; assay: 4-nitrophenol release at […] nm, Lineweaver-Burk plot; details: standard assay described as 50 mM sodium acetate pH 5.0, 55 °C; 4-NPG 0-13.28 mM
# T1 construct: native extracellular enzyme purified from culture supernatant (ammonium sulphate, HiTrap Q FF, native gel extraction); about 65 kDa; GH3 only inferred by authors
# Bgl2 = test system: T2, Bgl2; assay: 4-NPG hydrolysis, absorbance at […] nm, glucose […]; details: product inhibition; substrate 4-NPG; standard assay described as 50 mM sodium acetate pH 5.0, 55 °C
# T2 construct: native extracellular enzyme purified from culture supernatant, extracted from native gel; 230 kDa on native PAGE
# Bgl1 = test system: T3, Bgl1; assay: 4-NPG hydrolysis, absorbance at […] nm, glucose […]; details: product inhibition; substrate 4-NPG; standard assay described as 50 mM sodium acetate pH 5.0, 55 °C
# T3 construct: native extracellular enzyme purified from culture supernatant, extracted from native gel; 240 kDa on native PAGE
Structure (SMILES),Km (Bgl3),IC50 (Bgl2),IC50 (Bgl1)
O=[N+]([O-])c1ccc(O[C@@H]2O[C@H](CO)[C@@H](O)[C@H](O)[C@H]2O)cc1 [4-nitrophenyl-β-D-glucopyranoside],1180 µM,–,–
OC[C@H]1OC(O)[C@H](O)[C@@H](O)[C@@H]1O (stereo partly drawn) [glucose],–,22.6 mM,2.6 mM
